Patent US20160166604A1, “Thiol-Sensitive Positive Inotropes” (priority 2005, published 2016)
Several values for one entry are separate records, joined by “and”; a condition that tells them apart may be missing. Equal entries are not always repeated. Entries after “also recorded” stand apart in the source; their conditions may differ.

How the values were obtained:
SR Ca2+ pump (SERCA2a) = target: T1, SR Ca2+ pump (SERCA2a) (Mus musculus, UniProt O55143); assay: ATP-dependent Ca2+ uptake by murine cardiac SR vesicles (stopped-flow, arsenazo III); type: biochemical; set-up: total Ca2+ uptake at equilibrium: unit not given here
T1 construct: Crude cardiac microsomal vesicles containing fragmented sarcoplasmic reticulum (SR) were prepared; from tissue; host or cells: pooled hearts of C57 male mice (crude SR microsomal vesicles)
T1 sequence (O55143 1-998 isoform O55143-2): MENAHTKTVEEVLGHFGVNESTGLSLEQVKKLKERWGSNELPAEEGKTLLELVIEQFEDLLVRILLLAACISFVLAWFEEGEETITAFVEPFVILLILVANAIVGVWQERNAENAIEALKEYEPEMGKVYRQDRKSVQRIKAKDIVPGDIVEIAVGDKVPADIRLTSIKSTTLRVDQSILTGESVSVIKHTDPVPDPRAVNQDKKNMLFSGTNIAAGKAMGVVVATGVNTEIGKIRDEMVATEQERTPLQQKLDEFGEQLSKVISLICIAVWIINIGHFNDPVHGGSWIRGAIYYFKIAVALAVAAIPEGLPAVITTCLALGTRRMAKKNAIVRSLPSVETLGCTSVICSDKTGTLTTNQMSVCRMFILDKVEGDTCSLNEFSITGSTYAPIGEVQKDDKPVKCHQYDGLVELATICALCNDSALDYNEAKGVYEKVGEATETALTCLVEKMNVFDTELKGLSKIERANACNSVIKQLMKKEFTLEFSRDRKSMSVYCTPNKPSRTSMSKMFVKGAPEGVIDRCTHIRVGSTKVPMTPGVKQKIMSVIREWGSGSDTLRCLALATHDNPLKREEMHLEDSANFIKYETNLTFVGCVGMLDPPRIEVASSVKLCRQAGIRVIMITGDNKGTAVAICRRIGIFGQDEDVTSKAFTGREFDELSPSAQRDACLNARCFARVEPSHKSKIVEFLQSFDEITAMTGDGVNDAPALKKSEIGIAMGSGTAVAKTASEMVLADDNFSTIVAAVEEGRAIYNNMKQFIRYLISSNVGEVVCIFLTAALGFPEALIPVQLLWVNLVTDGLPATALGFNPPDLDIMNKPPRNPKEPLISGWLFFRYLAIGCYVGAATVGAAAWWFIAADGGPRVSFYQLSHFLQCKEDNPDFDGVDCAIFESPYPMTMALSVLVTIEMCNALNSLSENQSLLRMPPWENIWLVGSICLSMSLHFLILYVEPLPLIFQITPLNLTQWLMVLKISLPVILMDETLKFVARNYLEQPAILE
Method: Crude cardiac microsomal vesicles containing fragmented sarcoplasmic reticulum (SR) were prepared as previously described for rat heart. Froehlich, J. P. et al., J. Mol. Cell. Cardiol., 10, 427-438 (1978). Pooled hearts from C57 male mice sacrificed by cervical dislocation were placed in 0.9% saline on ice, trimmed of atrial and connective tissue, and weighed. The finely minced heart muscle was homogenized in 10 mM NaHCO3 using a Polytron blender and the SR vesicles were separated from the myofilaments, mitochondria and nuclear membranes by differential centrifugation at 8,500 and 45,000×g. SR vesicles suspended in 0.25 M sucrose+10 mM MOPS, pH 7.0 were frozen and stored in liquid nitrogen prior to use. Twenty minutes prior to measuring Ca^2+ uptake, cardiac SR vesicles (1 mg/ml in storage buffer) were incubated with 250 μM AS delivered from a freshly-prepared 10 mM stock solution of AS (Na2N2O3) dissolved in 10 mM NaOH. […] Stopped-flow mixing was used to measure the initial time course of Ca^2+ accumulation by murine cardiac SR vesicles using the Ca^2+ indicator dye, arsenazo III. Membrane vesicles (0.4 mg/ml) suspended in a medium containing 100 mM KCl, 1 mM MgCl2, 50 μM arsenazo III, 5 mM sodium azide, and 20 mM MOPS, pH 7.4, were mixed with an equal volume of an identical medium containing 1 mM Na2ATP at 24° C. in a manually-operated stopped-flow apparatus (Applied Photophysics, Ltd.). The change in [Ca^2+] in the mixing cuvette was monitored using a single-beam UV-VIS spectrophotometer (AVIV, Model 14DS) with a monochromator setting of 650 nm. The total [Ca^2+] in the uptake medium was 0.5 μM, yielding a free [Ca^2+] in equilibrium with the Ca-arsenazo III complex of 0.2 μM (KA=3.3×10^4 M^−1). […] The time-dependent decrease in absorbance at 650 nm, reflecting Ca^2+ uptake by the SR vesicles, was monitored for 30-60 s at 0.1 s intervals. […] The signal change due to vesicle light scattering was evaluated from separate measurements conducted under identical conditions at the isosbestic wavelength of 693 nm. For evaluation of the time course of Ca^2+ uptake, a representative trace at 693 nm was subtracted from each of the individual traces at 650 nm acquired under identical conditions. The kinetic and thermodynamic parameters for Ca^2+ uptake were evaluated by fitting stopped-flow signals to one- and two-exponential decay functions plus a residual term using non-linear regression (Prism, Version 3.03). Residual plots of the difference between the fitted curve and data points were used to evaluate systematic errors in the fits and to calculate the sum-of-squares error used in selecting the best fit.
To test whether HNO directly enhances SR Ca^2+ uptake, its effects on SR membrane vesicles isolated from pooled C57/Bl6 mouse hearts were studied. Crude SR microsomal vesicles were incubated with 250 μM AS prior to measuring ATP-dependent Ca uptake by stopped-flow mixing at 24° C. Arsenazo III, a mid-range Ca indicator, was used to monitor Ca removal from the eravesicular compartment and buffer the free [Ca^2+] at a level producing half-saturation of the Ca^2+ pump (˜0.2 μM).

[1] = tested on: isolated mouse ventricular myocytes; assay: Sarcomere shortening in field-stimulated isolated mouse ventricular myocytes; type: cell-based
Method: Wild type 2-4 month old mice were anesthetized with intraperitoneal pentobarbital sodium (100 mg/kg/ip). Hearts were perfused as previously described. Mongillo, M. et al., Circ. Res., 98, 226-234 (2006). To assess for sarcomere shortening, cells were imaged using field stimulation (Warner instruments) in an inverted fluorescence microscope (Diaphot 200; Nikon, Inc). Sarcomere length was measured by real-time Fourier transform (IonOptix MyoCam, CCCCD100M) and cell twitch amplitude is expressed as a percentage of resting cell length. Twitch kinetics was quantified by measuring the time to peak shortening and the time from peak shortening to 50% relaxation. For whole calcium transient measurements, myocytes were loaded with the Ca^2+ indicator fluo-4/AM (Molecular Probes, 20 μM for 30 min) and Ca^2+ transients were measured under field-stimulation at 0.5 Hz in perfusion solution by confocal laser scanning microscope (LSM510, Carl Zeiss). Digital image analysis used customer-designed programs coded in Interactive Data Language (IDL).
Nitroxyl (HNO) confers positive inotropy in vivo. Here, it was determined whether HNO action stems from a direct influence on sarcoplasmic reticulum (SR) Ca^2+ cycling, involving enhanced Ca^2+ release from ryanodine receptors (RyR2). Myocytes were isolated from ST mice, suspended in Tyrode's solution (1 mM Ca^2+) and field stimulated (0.5 Hz, 25° C.). Sarcomere shortening (SS) was assessed by real-time image analysis, Ca^2+ transients from Indo-1 fluorescence. RyR2 activity was determined by optical imaging of Ca^2+ release from single Ca^2+ release units.

isolated mouse myocytes = assay: SR Ca2+ stores by rapid caffeine infusion in mouse myocytes; type: cell-based; conditions: 1 mM AS; caffeine alone 223±34; n=8
Method: Nitroxyl (HNO) confers positive inotropy in vivo. Here, it was determined whether HNO action stems from a direct influence on sarcoplasmic reticulum (SR) Ca^2+ cycling, involving enhanced Ca^2+ release from ryanodine receptors (RyR2). Myocytes were isolated from ST mice, suspended in Tyrode's solution (1 mM Ca^2+) and field stimulated (0.5 Hz, 25° C.). Sarcomere shortening (SS) was assessed by real-time image analysis, Ca^2+ transients from Indo-1 fluorescence. RyR2 activity was determined by optical imaging of Ca^2+ release from single Ca^2+ release units. The HNO donor Angeli's Salt (AS) induced dose-dependent inotropy (SS: 73±31% at 0.5 mM; 131±31% at 1 mM; all n=15, p<0.05 vs. base; <0.1 mM: no effect). In contrast, the NO donor DEA/NO reduced SS by 55-65% at 5-50 μM (both p<0.05 vs. base), with no effect at higher doses. […] However, co-infusion with the thiol-donating compound N-acetyl-L-cysteine (NAC, 3 mM) abolished AS inotropy.

[Na+].[Na+].[O-][N+]([O-])=NO [AS, Angeli's salt]
increase of rate constant for Ca2+ uptake (SR Ca2+ pump (SERCA2a); 250 μM AS, 0.2 μM free Ca2+, 24° C., n=6): 104%
rate constant for Ca2+ uptake (SR Ca2+ pump (SERCA2a); 250 μM AS, without AS 0.1563): 0.3204 s⁻¹
rate of initial Ca2+ uptake (SR Ca2+ pump (SERCA2a); AS 250 μM): enhanced
total Ca2+ uptake at equilibrium (SR Ca2+ pump (SERCA2a); after AS exposure, before 0.00257±0.0003, p=NS): 0.00202±0.000
SR Ca2+ uptake activity after AS solution decayed completely to products (SR Ca2+ pump (SERCA2a); decayed AS test solution (e.g. nitrite)): No stimulation
myocyte relaxation hastened (time to 50% re-lengthening) ([1]; AS): 10-20%
time until response plateaued ([1]; AS): 10 to 15 min
increase in sarcomere shortening ([1]; AS 0.5 mM): 73±31% and ~100%
contractility response (sarcomere shortening) after GSH pre-treatment ([1]; AS 0.5 mM after GSH ethyl ester 4 mM for 3 hrs): 57±19%
increase in sarcomere shortening ([1]; AS 1 mM): 131±31% and 117±25% and ~100%
increase in sarcomere shortening with guanylate cyclase inhibition ([1]; AS 1 mM with ODQ, n=15, p=NS vs. AS 1 mM): 157±40%
AS concentration above which myocyte contractility rose ([1]; AS 10^-6 to 10^-3 M, C57/BL6 myocytes): > 100 µM
effect on sarcomere shortening ([1]; AS <0.1 mM): no effect
effect of co-application on ISO (2.5 nM)-stimulated sarcomere shortening ([1]; DEA/NO 0.25 mM, AS 0.5 mM): doubled
sarcomere shortening response after GSH pre-incubation ([1]; GSH 4 mM for 3 hrs, compared with 1 mM AS alone, n=14): 58±19%
AS inotropy on co-infusion of N-acetyl-L-cysteine ([1]; NAC 3 mM): abolished
effect of PKG inhibitor Rp-8Br-cGMPs on the agent's inotropy ([1]; Rp-8Br-cGMPs 10 μM pre-treatment): did not alter; also recorded: no impact
effect of PKA inhibitor Rp-CPT-cAMPs on the agent's enhancement of sarcomere shortening ([1]; Rp-CPT-cAMPs 100 μM pre-treatment): did not alter
reversibility of response after discontinuation ([1]; at ≦500 μM, after a similar time period): fully reversible
AS inotropy on co-treatment with thapsigargin ([1]; thapsigargin 3 μM, n=16): 52±14%
SR Ca2+ stores (% [Ca2+]i on caffeine) (isolated mouse myocytes): 138±17%
